Experimental data as given in PMC6035239, “Glycan recognition in globally dominant human rotaviruses” (Nature Communications, 2018).

Molecular target: T1, P[6] RV3 VP8* (Human rotavirus A, UniProt D7F7M7)
T1 construct: VP8* domain, N-terminal fragment of spike protein VP4 (polyprotein-like precursor cleaved by trypsin); N-terminal GST tag removed with thrombin; E. coli BL21(DE3)
Assay: 2D 1H-15N HSQC NMR titration, global fit of […] peaks
Assay type: binding
Settings: 70 μM 15N-labeled protein, 0.5-20 mM ligand; 10 mM sodium phosphate, 50 mM NaCl, 10% D2O, pH 7; crystal structure and STD NMR also done

Compound: CC(=O)N[C@H]1[C@H](O[C@H]2[C@@H](O)[C@@H](CO)O[C@@H](O[C@H]3[C@H](O)[C@@H](O)C(O)O[C@@H]3CO)[C@@H]2O)O[C@H](CO)[C@@H](O)[C@@H]1O[C@@H]1O[C@H](CO)[C@H](O)[C@H](O)[C@H]1O[C@@H]1O[C@@H](C)[C@@H](O)[C@@H](O)[C@@H]1O (stereo partly shown) [LNFP1]
- Kd: 7.1 ± 0.2 mM
